Data: patent US8236827B2, “Compounds” (Spear Therapeutics Limited, priority 2009, dated 2012)

How the values were obtained:
[1] = tested on: wild-type CHO cells; experiment: Cytotoxicity (MTS) in wild-type CHO cells; assay type: cell-based, Chinese Hamster; settings: for IC50: Cricetulus griseus, CHO, 96 h, MTS
Protocol: CHO cells: Chinese Hamster Ovary (CHO) DUKXB11 cells were grown under standard cell culture conditions in α-MEM supplemented with 10% FCS, 1 unit/ml each of hypoxanthine and thymidine, and penicillin (100 IU/ml) and streptomycin (100 μg/ml) according to literature methods (Ding S, et al., Arch. Biochem. Biophys., 348: 403-410, 1997, the contents of which are incorporated herein by reference). Cells were grown at 37° C. in a humidified atmosphere plus 5% CO2.
(§1) A single cell suspension of CHO, CHO/CYP1A1 or CHO/CYP1B1 in 100 μl of the required cell culture medium was seeded onto 96-well plates at a cell density of 1500 cells per well and placed in an incubator for 24 h at 37° C. The stock solution of test compound in DMSO was then added to give a concentration range of 100, 30, 10, 3, 1, 0.3, 0.1, 0.03, 0.01, 0.003, 0.001, 0 μM. The final concentration of DMSO 0.2% was found not to affect the growth characteristics of the various CHO cell lines. The cells were incubated with the test compound for 96 h after which all the medium was aspirated and replaced with 100 μl of fresh medium to compensate for the loss of medium due to evaporation. The cells were incubated with 20 μl of the MTS assay reagent for 1.5 h and the absorbance per well at 510 nm measured using a plate reader. The mean absorbance and standard deviation for each test compound concentration was calculated versus a series of controls including (a) cells plus medium, (b) cell plus medium containing DMSO 0.2%, (c) medium alone, and (d) medium containing DMSO 0.2% and a range of test compound concentrations from 0 to 100 μM.
(§2) The MTS assay is a homogeneous, colorimetric method for determining the number of viable cells in proliferation, cytotoxicity or chemosensitivity assays (Cali J J, et al., “Luminescence-Based Methods and Probes for Measuring Cytochrome P450 Activity”, pp. 1-29. Promega Corporation, United States, 2004, the contents of which are incorporated herein by reference). The assay is composed of solutions of tetrazolium compound [3-(4,5-dimethylthiazol-2-yl)-5-(3-carboxymethoxyphenyl)-2-(4-sulfophenyl)-2H-tetrazolium, inner salt; MTS] and an electron coupling reagent (phenazine methosulfate) PMS. MTS is bioreduced by cells into a formazan product that is soluble in tissue culture medium. The absorbance of the formazan product at 510 nm can be directly measured from 96-well assay plates. The quantity of formazan product as measured by the amount of absorbance at 490 or 510 nm is directly proportional to the number of living cells in culture.

[2] = target: CYP2D6 (Homo sapiens, UniProt P10635); experiment: CYP phenotyping, metabolic stability; assay type: in vitro ADME; settings: CYP2D6 (10 pm/mL); 1 μM; after 60 minutes
Protocol: (§3) Compounds V and II were exposed to a panel of six CYPs (see Table 5 below).
(§4) CYP metabolism studies were performed by Cerep Laboratories (Redmond, Wash., USA). Compounds were screened in duplicate at 1 μM in the presence of CYP enzyme, NADP (1.3 mM), D-Glucose-6-phosphate (3.3 mM) and Glucose-6-phosphate dehydrogenase. Following incubation at 0 and 60 minutes, parent compound levels were determined using standard HPLC/MS/MS procedures. The results are expressed as percent parent compound remaining after 60 minutes.

[3] = target: CYP2C19 (Homo sapiens, UniProt P33261); experiment: CYP phenotyping, metabolic stability; assay type: in vitro ADME; settings: CYP2C19 (10 pm/mL); 1 μM; after 60 minutes
Protocol: as §3, §4

[4] = target: CYP2C9 (Homo sapiens, UniProt P11712); experiment: CYP phenotyping, metabolic stability; assay type: in vitro ADME; settings: CYP2C9 (10 pm/mL); 1 μM; after 60 minutes
Protocol: as §3, §4

[5] = target: CYP3A4 (Homo sapiens, UniProt P08684); experiment: CYP phenotyping, metabolic stability; assay type: in vitro ADME; settings: CYP3A4 (10 pm/mL); 1 μM; after 60 minutes
Protocol: as §3, §4

[6] = tested on: UTSCC-14 xenograft tumours; experiment: UTSCC-14 xenograft study in nu/nu mice; assay type: in vivo; settings: 7, 20, 50 mg/kg i.p. daily for 29 days; tumours excised day 40; versus vehicle control
Protocol: The study compared the efficacy of Compound II with a vehicle control in UTSCC-14 xenograft tumours at three different dose levels.
Forty female nu/nu mice (7-9 wks old, weight 20-25 grams) were implanted sc with 2e6 UTSCC-14 cells and randomized 10 days later into […] (Table 1) with an approximate tumour volume of 100-150 mm-3. All groups were dosed daily ip for 29 days. On day 40 tumours were excised and weighed.
The UTSCC-14 cells used in the experiment were sourced from Professor Reidar Grénman's laboratory at the University of Turku, Department of Head and Neck Surgery, Turku University, Turku, Finland) and taken from a grade II primary tumour from the tongue of a head and neck cancer patient.
Compound II was dissolved/suspended in 100% cell culture grade DMSO at 40 mg/ml, before dilution with ddH20 immediately prior to dosing to make a stock 50% DMSO/Water solution. This stock solution was used to prepare all doses by dilution with 50% DMSO/Water to achieve the required concentration.
FIG. 2 compares the weight in grams of tumours excised on day 40 of the study. […] The study provides evidence that Compound II (and related compounds described here) are useful in the development of novel cancer therapies.

[7] = Cytotoxicity (MTS) in CHO/CYP1B1 cells; assay type: cell-based, Chinese Hamster; settings: Chinese hamster; 96 h, MTS; read-out: CHO/CYP1B1 IC50
Protocol: (§5) CHO/CYP1A1 and CHO/CYP1B1 cells: CHO cells containing recombinant CYP1A1 and recombinant CYP1B1 co-expressing P450 reductase, namely (CHO/CYP1A1) and (CHO/CYP1B1) respectively, were cultured using the standard culture medium for CHO cells supplemented with 0.4 mg/ml G418 disulfate salt and 0.3 μM methotrexate (Sigma/Aldrich Co., Gillingham, Dorset, UK) according to methods described in the literature (ibid.) Cells were grown at 37° C. in a humidified atmosphere plus 5% CO2.
as §1, §2

[8] = tested on: CHO/CYP1B1 cells; experiment: Cytotoxicity (MTS) in CHO/CYP1B1 cells; assay type: cell-based, Chinese Hamster
Protocol: as §5, §1, §2

[9] = target: CYP3A5 (Homo sapiens, UniProt P20815); experiment: CYP phenotyping, metabolic stability; assay type: in vitro ADME; settings: CYP3A5 (10 pm/mL); 1 μM; after 60 minutes
Protocol: (§6) As mentioned above, a feature of the compounds of the invention is their metabolism by CYP1B1 which is expressed at high frequency in a wide range of human cancers of different histogenetic types, but not in normal tissues. […] Compounds V and II were exposed to a panel of six CYPs (see Table 5 below).
as §4

[10] = target: T1, CYP1A2 (Homo sapiens, UniProt P05177); experiment: CYP phenotyping, metabolic stability; assay type: in vitro ADME; settings: CYP1A2 (40 pm/mL)
T1 sequence (P05177 1-516): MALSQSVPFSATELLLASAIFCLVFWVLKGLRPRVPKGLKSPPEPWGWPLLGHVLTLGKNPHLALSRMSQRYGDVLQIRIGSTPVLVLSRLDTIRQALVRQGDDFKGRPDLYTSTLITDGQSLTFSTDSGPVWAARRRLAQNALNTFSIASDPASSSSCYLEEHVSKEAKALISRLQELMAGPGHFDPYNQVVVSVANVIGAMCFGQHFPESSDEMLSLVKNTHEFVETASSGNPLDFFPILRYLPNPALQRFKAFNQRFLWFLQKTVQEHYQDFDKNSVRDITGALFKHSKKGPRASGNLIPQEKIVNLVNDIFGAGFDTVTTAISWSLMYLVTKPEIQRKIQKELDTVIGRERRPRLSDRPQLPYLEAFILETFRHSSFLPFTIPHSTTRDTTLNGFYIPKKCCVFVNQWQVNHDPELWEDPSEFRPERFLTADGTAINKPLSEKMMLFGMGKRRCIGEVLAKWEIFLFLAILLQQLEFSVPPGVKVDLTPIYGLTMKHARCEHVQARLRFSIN
Protocol: as §6, §4

[11] = tested on: CHO/CYP1A1 cells; experiment: Cytotoxicity (MTS) in CHO/CYP1A1 cells; assay type: cell-based, Chinese Hamster
Protocol: as §5, §1, §2

[12] = Cytotoxicity (MTS) in CHO/CYP1A1 cells; assay type: cell-based, Chinese Hamster; settings: Chinese hamster; 96 h, MTS
Protocol: as §5, §1, §2

[13] = target: C-Met (HGFR) (Homo sapiens, UniProt P08581); experiment: Cerep kinase screen; assay type: biochemical; settings: read-out: % Inhibition of Control
Protocol: (§7) Kinase screening was performed by Cerep Laboratories (Celle l′Evescault, France). Compounds were screened in duplicate at a single concentration (10 μM). The results, set forth in Table 4 below, are expressed as percent inhibition of control specific activity: {100−[(measured specific activity/control specific activity)×100]} obtained in the presence of Compound XI and Compound V. ATP concentrations correspond to the ATP Km value for each individual kinase (Cerep, private communication). In each experiment, a reference compound was tested concurrently with Compound XI and Compound V in order to assess the assay reliability. IC50 values for the reference compounds were within accepted limits (±0.5 log units) of the historic average.

[14] = target: Lyn (Homo sapiens, UniProt P07948); experiment: Cerep kinase screen; assay type: biochemical; settings: read-out: % Inhibition of Control
Protocol: as §7

[15] = target: FLT-1 (Homo sapiens, UniProt P17948); experiment: Cerep kinase screen; assay type: biochemical; settings: read-out: % Inhibition of Control
Protocol: as §7

[16] = target: KDR (VEGFR2) (Homo sapiens, UniProt P35968); experiment: Cerep kinase screen; assay type: biochemical; settings: read-out: % Inhibition of Control
Protocol: as §7

[17] = target: FGFR2 (Homo sapiens, UniProt P21802); experiment: Cerep kinase screen; assay type: biochemical; settings: read-out: % Inhibition of Control
Protocol: as §7

[18] = target: FGFR4 (Homo sapiens, UniProt P22455); experiment: Cerep kinase screen; assay type: biochemical; settings: read-out: % Inhibition of Control
Protocol: as §7

[19] = target: Fyn (Homo sapiens, UniProt P06241); experiment: Cerep kinase screen; assay type: biochemical; settings: read-out: % Inhibition of Control
Protocol: as §7

[20] = target: CSK (Homo sapiens, UniProt P41240); experiment: Cerep kinase screen; assay type: biochemical; settings: read-out: % Inhibition of Control
Protocol: as §7

[21] = target: FLT-3 (Homo sapiens, UniProt P36888); experiment: Cerep kinase screen; assay type: biochemical; settings: read-out: % Inhibition of Control
Protocol: as §7

[22] = target: PDGFRβ (Homo sapiens, UniProt P09619); experiment: Cerep kinase screen; assay type: biochemical; settings: read-out: % Inhibition of Control
Protocol: as §7

Sequence of FLT-3 (P36888 27-993, species assumed): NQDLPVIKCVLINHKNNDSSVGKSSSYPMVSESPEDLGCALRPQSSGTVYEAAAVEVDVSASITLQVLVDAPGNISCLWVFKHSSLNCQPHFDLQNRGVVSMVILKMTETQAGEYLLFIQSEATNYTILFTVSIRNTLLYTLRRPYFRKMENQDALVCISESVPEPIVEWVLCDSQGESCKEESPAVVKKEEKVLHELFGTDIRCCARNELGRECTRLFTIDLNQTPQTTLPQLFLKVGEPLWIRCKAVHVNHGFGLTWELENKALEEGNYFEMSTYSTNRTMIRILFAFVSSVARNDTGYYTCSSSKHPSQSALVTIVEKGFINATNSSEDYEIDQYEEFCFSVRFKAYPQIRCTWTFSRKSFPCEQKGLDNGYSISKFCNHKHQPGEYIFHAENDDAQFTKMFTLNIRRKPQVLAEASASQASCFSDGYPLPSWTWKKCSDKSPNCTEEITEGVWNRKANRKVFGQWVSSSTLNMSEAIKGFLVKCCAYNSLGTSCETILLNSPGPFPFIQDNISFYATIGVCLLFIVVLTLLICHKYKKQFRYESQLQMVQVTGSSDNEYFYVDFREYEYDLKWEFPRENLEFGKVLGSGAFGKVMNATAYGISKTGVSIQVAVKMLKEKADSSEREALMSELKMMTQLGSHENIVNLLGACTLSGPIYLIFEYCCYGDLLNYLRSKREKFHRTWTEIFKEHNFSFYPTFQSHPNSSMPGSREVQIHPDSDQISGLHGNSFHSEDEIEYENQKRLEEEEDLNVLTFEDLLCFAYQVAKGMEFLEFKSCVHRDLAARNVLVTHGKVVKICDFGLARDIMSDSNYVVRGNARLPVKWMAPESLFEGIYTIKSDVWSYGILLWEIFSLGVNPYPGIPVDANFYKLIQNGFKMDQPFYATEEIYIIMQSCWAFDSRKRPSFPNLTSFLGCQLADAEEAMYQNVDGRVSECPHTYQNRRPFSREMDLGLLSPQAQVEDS
Sequence of CYP2C19 (P33261 whole entry, species assumed): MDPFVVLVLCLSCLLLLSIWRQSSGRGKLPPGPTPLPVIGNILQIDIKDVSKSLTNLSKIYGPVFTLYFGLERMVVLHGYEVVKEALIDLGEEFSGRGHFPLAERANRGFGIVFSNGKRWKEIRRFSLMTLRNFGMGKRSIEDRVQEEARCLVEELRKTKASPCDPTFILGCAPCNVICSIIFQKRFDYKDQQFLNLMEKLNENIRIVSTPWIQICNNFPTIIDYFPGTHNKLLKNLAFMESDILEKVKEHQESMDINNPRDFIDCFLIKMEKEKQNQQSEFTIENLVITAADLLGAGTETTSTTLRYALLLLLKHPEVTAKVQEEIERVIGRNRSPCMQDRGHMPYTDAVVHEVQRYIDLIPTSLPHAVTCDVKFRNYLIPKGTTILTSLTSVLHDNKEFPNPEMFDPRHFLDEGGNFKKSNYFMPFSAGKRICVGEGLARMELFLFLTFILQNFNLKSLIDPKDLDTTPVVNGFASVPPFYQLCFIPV
Sequence of C-Met (HGFR) (P08581 25-1390): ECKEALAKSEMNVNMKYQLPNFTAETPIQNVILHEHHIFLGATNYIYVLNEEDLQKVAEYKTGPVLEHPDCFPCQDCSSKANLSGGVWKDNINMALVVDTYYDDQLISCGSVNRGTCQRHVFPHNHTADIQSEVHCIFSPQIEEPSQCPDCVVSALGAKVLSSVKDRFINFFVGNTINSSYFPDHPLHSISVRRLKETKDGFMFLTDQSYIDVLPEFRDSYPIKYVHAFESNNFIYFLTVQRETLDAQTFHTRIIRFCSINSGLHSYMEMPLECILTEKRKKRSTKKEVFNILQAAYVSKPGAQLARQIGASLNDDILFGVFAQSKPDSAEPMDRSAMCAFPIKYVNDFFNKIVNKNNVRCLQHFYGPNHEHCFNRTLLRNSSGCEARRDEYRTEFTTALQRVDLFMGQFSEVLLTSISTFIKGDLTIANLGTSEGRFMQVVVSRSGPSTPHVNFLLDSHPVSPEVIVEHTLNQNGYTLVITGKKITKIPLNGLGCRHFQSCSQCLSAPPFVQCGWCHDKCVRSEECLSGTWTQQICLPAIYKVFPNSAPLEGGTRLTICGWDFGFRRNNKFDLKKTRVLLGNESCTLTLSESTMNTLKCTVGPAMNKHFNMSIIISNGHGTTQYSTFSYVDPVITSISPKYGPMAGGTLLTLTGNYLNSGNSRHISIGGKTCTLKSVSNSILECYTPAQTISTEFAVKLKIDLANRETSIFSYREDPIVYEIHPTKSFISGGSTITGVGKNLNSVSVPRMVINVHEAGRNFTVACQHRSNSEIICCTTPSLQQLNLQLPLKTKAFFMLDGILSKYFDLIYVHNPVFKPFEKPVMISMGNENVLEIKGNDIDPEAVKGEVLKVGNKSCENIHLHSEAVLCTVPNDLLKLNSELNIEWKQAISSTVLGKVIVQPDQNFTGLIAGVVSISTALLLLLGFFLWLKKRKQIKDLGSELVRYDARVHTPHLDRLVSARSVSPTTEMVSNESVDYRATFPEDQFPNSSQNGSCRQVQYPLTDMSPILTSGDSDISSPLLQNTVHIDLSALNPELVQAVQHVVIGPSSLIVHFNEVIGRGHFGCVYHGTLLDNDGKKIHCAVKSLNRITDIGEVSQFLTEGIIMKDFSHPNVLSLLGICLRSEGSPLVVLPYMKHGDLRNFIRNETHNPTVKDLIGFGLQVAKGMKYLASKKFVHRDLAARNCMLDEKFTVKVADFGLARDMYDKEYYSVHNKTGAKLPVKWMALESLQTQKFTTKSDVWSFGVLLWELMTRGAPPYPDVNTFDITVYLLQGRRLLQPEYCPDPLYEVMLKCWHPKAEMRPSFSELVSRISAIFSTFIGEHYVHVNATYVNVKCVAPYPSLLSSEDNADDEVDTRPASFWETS
Sequence of CYP2D6 (P10635 whole entry, species assumed): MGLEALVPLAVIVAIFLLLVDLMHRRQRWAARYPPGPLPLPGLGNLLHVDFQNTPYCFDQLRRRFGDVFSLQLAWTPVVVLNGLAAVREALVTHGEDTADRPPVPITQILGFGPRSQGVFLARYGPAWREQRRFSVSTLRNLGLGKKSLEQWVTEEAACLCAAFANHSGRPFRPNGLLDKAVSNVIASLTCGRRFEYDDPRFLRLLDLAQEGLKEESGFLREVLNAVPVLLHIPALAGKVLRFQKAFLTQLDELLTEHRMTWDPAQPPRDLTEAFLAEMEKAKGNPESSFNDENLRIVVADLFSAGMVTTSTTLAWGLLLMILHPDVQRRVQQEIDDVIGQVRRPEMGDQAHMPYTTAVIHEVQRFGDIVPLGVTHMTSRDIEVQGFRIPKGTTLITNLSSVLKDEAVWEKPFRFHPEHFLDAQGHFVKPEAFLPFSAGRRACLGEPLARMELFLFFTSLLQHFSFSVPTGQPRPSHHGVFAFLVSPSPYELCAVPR
Sequence of FGFR4 (P22455 22-802, species assumed): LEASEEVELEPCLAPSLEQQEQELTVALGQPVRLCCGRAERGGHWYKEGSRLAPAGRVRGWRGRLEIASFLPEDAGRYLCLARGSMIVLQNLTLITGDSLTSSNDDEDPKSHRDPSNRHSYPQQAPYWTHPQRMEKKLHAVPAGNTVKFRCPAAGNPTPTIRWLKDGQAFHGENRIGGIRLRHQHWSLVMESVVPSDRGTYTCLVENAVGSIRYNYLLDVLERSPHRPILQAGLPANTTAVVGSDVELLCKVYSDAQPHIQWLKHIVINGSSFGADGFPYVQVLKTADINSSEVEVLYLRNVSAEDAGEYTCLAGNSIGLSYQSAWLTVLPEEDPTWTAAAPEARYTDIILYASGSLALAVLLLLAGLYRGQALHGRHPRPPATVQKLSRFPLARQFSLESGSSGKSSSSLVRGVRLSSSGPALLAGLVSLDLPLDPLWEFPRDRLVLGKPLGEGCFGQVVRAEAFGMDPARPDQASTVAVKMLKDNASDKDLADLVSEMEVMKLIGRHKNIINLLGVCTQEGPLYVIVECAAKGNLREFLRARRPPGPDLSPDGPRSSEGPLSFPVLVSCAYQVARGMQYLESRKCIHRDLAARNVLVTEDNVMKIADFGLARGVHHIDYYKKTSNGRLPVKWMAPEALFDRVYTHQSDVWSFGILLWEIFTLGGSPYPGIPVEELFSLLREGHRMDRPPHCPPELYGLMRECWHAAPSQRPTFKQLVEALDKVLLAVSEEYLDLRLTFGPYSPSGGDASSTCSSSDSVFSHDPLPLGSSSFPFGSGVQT
Sequence of CYP2C9 (P11712 whole entry, species assumed): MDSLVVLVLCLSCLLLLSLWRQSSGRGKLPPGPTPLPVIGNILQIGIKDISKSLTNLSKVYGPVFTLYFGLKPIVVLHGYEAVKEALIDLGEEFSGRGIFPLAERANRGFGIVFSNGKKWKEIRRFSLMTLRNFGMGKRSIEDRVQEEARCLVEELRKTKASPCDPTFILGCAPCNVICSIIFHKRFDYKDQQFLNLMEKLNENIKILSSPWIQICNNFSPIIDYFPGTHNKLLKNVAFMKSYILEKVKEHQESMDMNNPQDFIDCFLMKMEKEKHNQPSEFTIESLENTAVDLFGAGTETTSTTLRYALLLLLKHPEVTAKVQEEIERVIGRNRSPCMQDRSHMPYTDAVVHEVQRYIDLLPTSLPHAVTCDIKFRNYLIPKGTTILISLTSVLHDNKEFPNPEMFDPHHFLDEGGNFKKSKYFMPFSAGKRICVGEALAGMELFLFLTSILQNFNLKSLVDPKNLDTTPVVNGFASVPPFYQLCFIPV
Sequence of CSK (P41240 whole entry, species assumed): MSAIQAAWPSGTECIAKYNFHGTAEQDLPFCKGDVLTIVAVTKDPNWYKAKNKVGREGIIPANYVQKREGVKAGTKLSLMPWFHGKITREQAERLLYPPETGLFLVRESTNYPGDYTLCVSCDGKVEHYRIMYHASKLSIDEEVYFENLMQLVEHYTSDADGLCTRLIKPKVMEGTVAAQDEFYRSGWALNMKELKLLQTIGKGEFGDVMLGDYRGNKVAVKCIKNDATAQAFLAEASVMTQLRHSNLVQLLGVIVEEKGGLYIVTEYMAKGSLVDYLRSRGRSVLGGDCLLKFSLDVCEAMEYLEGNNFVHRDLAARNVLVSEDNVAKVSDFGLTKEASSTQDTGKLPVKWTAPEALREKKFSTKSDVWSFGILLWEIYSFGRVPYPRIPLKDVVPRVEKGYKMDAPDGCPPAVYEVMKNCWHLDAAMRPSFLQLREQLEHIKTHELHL

Q: What does the source list for `CCCOc1ccc(-c2cc(-c3ccc(OC)c(OC)c3)[nH]c(=O)c2)cc1` [Compound II]?
A: toxicity to wild-type CHO cells (in words) [1]: non toxic; IC50 [1]: > 50000 nM; Mean Parent Remaining (%) [2]: 127%; Mean Parent Remaining (%) [3]: 127%; Mean Parent Remaining (%) [4]: 130%; Mean Parent Remaining (%) [5]: 122%; wet tumour weight at the end of the study (FIG. 2) [6]: dose dependent reduction in wet tumour weight; IC50 at 96 h [7]: 90 ± 50 nM; activity against CHO/CYP1B1 cells (in words) [8]: strongly inhibit proliferation; Mean Parent Remaining (%) [9]: 126%; Mean Parent Remaining (%) ([10]; 1 μM, after 60 minutes): 69%; toxicity / activity in CYP1A1 expressing CHO cells (in words) [11]: non toxic; IC50 at 96 h [12]: > 50000 nM

Q: Which “% Reference Compound Remaining” value ([10]; reference compound) does the source give for `CCOc1ccc2nc3ccc(=O)cc-3oc2c1` [Ethoxy-resorufin, 7-ethoxyresorufin, reference compound] here?
A: 0%

Q: Which IC50 [1] does the source give for `COc1ccc(-c2cc(-c3ccc4c(c3)OCO4)cc(=O)[nH]2)c(OC)c1` [Compound III] here?
A: 6110 ± 340 nM

Q: And the IC50 at 96 h [7]?
A: 40 ± 30 nM

Q: What about the “activity against CHO/CYP1B1 cells (in words)” value [8] of the same compound?
A: active

Q: What about the “toxicity / activity in CYP1A1 expressing CHO cells (in words)” value [11] of the same compound?
A: active

Q: What about the IC50 at 96 h [12] of the same compound?
A: 950 ± 350 nM

Q: For `COc1ccc(-c2cc(-c3ccc(O)c(O)c3)cc(=O)[nH]2)cc1OC` [Compound XI], which inhibition at 10 µM [13] is on record?
A: 58%

Q: And the inhibition at 10 µM [14]?
A: 99%

Q: And the inhibition at 10 µM [15]?
A: 98%

Q: And the inhibition at 10 µM [16]?
A: 96%

Q: And the inhibition at 10 µM [17]?
A: 98%

Q: What about the inhibition at 10 µM [18] of the same compound?
A: 85%

Q: What about the inhibition at 10 µM [19] of the same compound?
A: 100%

Q: And the inhibition at 10 µM [20]?
A: 98%

Q: What about the inhibition at 10 µM [21] of the same compound?
A: 93%

Q: What about the inhibition at 10 µM [22] of the same compound?
A: 91%
